{"source": "paper PMC7265429", "about": "“Characterization of a new small-molecule inhibitor of HDAC6 in glioblastoma” (Cell Death & Disease, 2020)", "system": "GNS166 cells", "experiment": "Microarray whole-transcriptome gene expression analysis", "assay_type": "cell-based, human", "conditions": "5 µM SAHA vs DMSO", "method": "Whole-transcriptome analysis was performed from 300 ng of RNA using HuGene-2_0-st-v1 expression array (Affymetrix), which covers 48,226 transcripts. Raw data were first checked for quality purposes through the Affymetrix® Expression Console™ Software v1.4.1 and TAC software v4.0. Then, data were normalized using the Robust Multi-array Average (RMA) and analyzed by Limma tool. Probesets with FDR-corrected p-values smaller than 0.05 were selected. Functional enrichment on Gene Ontology (GO) biological processes was performed on a smaller subset of the differentially expressed genes (corrected p-value < 0.001) by means of Broad Institute GSEA. […] The data that support this study have been deposited in NCBI´s Gene Expression Omnibus and are accessible through GEO series accession number GSE143887.", "data": [{"smiles": "O=C(CCCCCCC(=O)Nc1ccccc1)NO", "note": "[SAHA, Suberoylanilide hydroxamic acid]", "values": [{"measurement": "logFC C4orf32", "setting": "transcript TC0400008424.hg.1", "result": 1.313}, {"measurement": "logFC USP53", "setting": "transcript TC0400008557.hg.1", "result": 1.38}, {"measurement": "logFC SPRY1", "setting": "transcript TC0400008628.hg.1", "result": 1.671}, {"measurement": "logFC PCDH10", "setting": "transcript TC0400008725.hg.1", "result": 3.614}, {"measurement": "logFC LRAT", "setting": "transcript TC0400009068.hg.1", "result": 2.43}, {"measurement": "logFC GUCY1B3", "setting": "transcript TC0400009088.hg.1", "result": 2.131}, {"measurement": "logFC GRIA2", "setting": "transcript TC0400009110.hg.1", "result": 2.789}, {"measurement": "logFC WDR17", "setting": "transcript TC0400009376.hg.1", "result": 2.897}, {"measurement": "logFC TLR10", "setting": "transcript TC0400010449.hg.1", "result": 2.282}, {"measurement": "logFC TEC", "setting": "transcript TC0400010618.hg.1", "result": 1.822}, {"measurement": "logFC SPINK2", "setting": "transcript TC0400010780.hg.1", "result": 1.664}, {"measurement": "logFC PAQR3", "setting": "transcript TC0400011130.hg.1", "result": 1.64}, {"measurement": "logFC HPSE", "setting": "transcript TC0400011203.hg.1", "result": 1.993}, {"measurement": "logFC ABCG2", "setting": "transcript TC0400011279.hg.1", "result": 2.81}, {"measurement": "logFC NDNF", "setting": "transcript TC0400011732.hg.1", "result": 1.962}, {"measurement": "logFC CBR4", "setting": "transcript TC0400012375.hg.1", "result": 2.0355}, {"measurement": "logFC CCDC110", "setting": "transcript TC0400012640.hg.1", "result": 2.964}, {"measurement": "logFC STIM2", "setting": "transcript TC0400012781.hg.1", "result": 2.698}, {"measurement": "logFC STIM2", "setting": "transcript TC0400012782.hg.1", "result": 1.4133}, {"measurement": "logFC TMEM144", "setting": "transcript TC0400012854.hg.1", "result": 1.56}, {"measurement": "logFC MFAP3L", "setting": "transcript TC0400012992.hg.1", "result": 1.287}, {"measurement": "logFC ROPN1L", "setting": "transcript TC0500006744.hg.1", "result": 1.559}, {"measurement": "logFC CDH6", "setting": "transcript TC0500007044.hg.1", "result": 1.462}, {"measurement": "logFC HEXB", "setting": "transcript TC0500007792.hg.1", "result": 1.236}, {"measurement": "logFC ADGRV1", "setting": "transcript TC0500008055.hg.1", "result": 1.802}, {"measurement": "logFC C5orf30", "setting": "transcript TC0500008233.hg.1", "result": 1.583}, {"measurement": "logFC ACTBL2", "setting": "transcript TC0500010822.hg.1", "result": 3.506}, {"measurement": "logFC SGTB", "setting": "transcript TC0500010932.hg.1", "result": 1.8638}, {"measurement": "logFC MEF2C", "setting": "transcript TC0500011418.hg.1", "result": 3.2962}, {"measurement": "logFC PCSK1", "setting": "transcript TC0500011513.hg.1", "result": 2.7195}, {"measurement": "logFC ST8SIA4", "setting": "transcript TC0500011579.hg.1", "result": 2.463}, {"measurement": "logFC NREP", "setting": "transcript TC0500011705.hg.1", "result": 1.704}, {"measurement": "logFC SEMA6A", "setting": "transcript TC0500011775.hg.1", "result": 1.39}, {"measurement": "logFC MARCH3", "setting": "transcript TC0500011935.hg.1", "result": 1.4429}, {"measurement": "logFC BASP1", "setting": "transcript TC0500013155.hg.1", "result": 2.0101}, {"measurement": "logFC BMP6", "setting": "transcript TC0600006873.hg.1", "result": 2.494}, {"measurement": "logFC CD83", "setting": "transcript TC0600007012.hg.1", "result": 1.54}, {"measurement": "logFC SLC25A27", "setting": "transcript TC0600008166.hg.1", "result": 2.967}, {"measurement": "logFC TMEM14A", "setting": "transcript TC0600008262.hg.1", "result": 1.194}, {"measurement": "logFC OGFRL1", "setting": "transcript TC0600008486.hg.1", "result": 1.1708}, {"measurement": "logFC TPD52L1", "setting": "transcript TC0600009353.hg.1", "result": 1.7761}, {"measurement": "logFC KIAA0319", "setting": "transcript TC0600011065.hg.1", "result": 1.327}, {"measurement": "logFC GSTA4", "setting": "transcript TC0600012059.hg.1", "result": 1.152}, {"measurement": "logFC ELOVL4", "setting": "transcript TC0600012379.hg.1", "result": 1.597}, {"measurement": "logFC GPR63", "setting": "transcript TC0600012625.hg.1", "result": 1.5628}, {"measurement": "logFC CTGF", "setting": "transcript TC0600013186.hg.1", "result": 1.2152}, {"measurement": "logFC SGK1", "setting": "transcript TC0600013231.hg.1", "result": 2.01}, {"measurement": "logFC CITED2", "setting": "transcript TC0600013361.hg.1", "result": 1.453}, {"measurement": "logFC MICA", "setting": "transcript TC0600014101.hg.1", "result": 1.308}, {"measurement": "logFC TBC1D7", "setting": "transcript TC0600014241.hg.1", "result": 1.745}, {"measurement": "logFC GCLC", "setting": "transcript TC0600014300.hg.1", "result": 1.594}, {"measurement": "logFC SCIN", "setting": "transcript TC0700006735.hg.1", "result": 1.966}, {"measurement": "logFC TSPAN13", "setting": "transcript TC0700006783.hg.1", "result": 2.267}, {"measurement": "logFC RUNDC3B", "setting": "transcript TC0700008261.hg.1", "result": 2.108}, {"measurement": "logFC PEG10", "setting": "transcript TC0700008367.hg.1", "result": 1.87}, {"measurement": "logFC SDHAF3", "setting": "transcript TC0700008430.hg.1", "result": 2.085}, {"measurement": "logFC CPED1", "setting": "transcript TC0700008928.hg.1", "result": 1.813}, {"measurement": "logFC FKBP14", "setting": "transcript TC0700010621.hg.1", "result": 1.44}, {"measurement": "logFC IGFBP3", "setting": "transcript TC0700010965.hg.1", "result": 3.673}, {"measurement": "logFC PCLO", "setting": "transcript TC0700011655.hg.1", "result": 1.736}, {"measurement": "logFC TFPI2", "setting": "transcript TC0700011809.hg.1", "result": 1.387}, {"measurement": "logFC DOCK4", "setting": "transcript TC0700012276.hg.1", "result": 2.262}, {"measurement": "logFC KCNH2", "setting": "transcript TC0700013050.hg.1", "result": 1.762}, {"measurement": "logFC DOCK5", "setting": "transcript TC0800007057.hg.1", "result": 2.096}, {"measurement": "logFC CHCHD7", "setting": "transcript TC0800007697.hg.1", "result": 1.373}, {"measurement": "logFC GDAP1", "setting": "transcript TC0800007985.hg.1", "result": 1.791}, {"measurement": "logFC STMN2", "setting": "transcript TC0800008044.hg.1", "result": 3.942}, {"measurement": "logFC CA3", "setting": "transcript TC0800008124.hg.1", "result": 3.677}, {"measurement": "logFC CA2", "setting": "transcript TC0800008126.hg.1", "result": 1.801}, {"measurement": "logFC STC1", "setting": "transcript TC0800009891.hg.1", "result": 3.859}, {"measurement": "logFC TEX15", "setting": "transcript TC0800010045.hg.1", "result": 3.073}, {"measurement": "logFC ZMAT4", "setting": "transcript TC0800010224.hg.1", "result": 2.513}, {"measurement": "logFC ENPP2", "setting": "transcript TC0800011620.hg.1", "result": 1.943}, {"measurement": "logFC FBXO16", "setting": "transcript TC0800012396.hg.1", "result": 1.919}, {"measurement": "logFC SLC1A1", "setting": "transcript TC0900006522.hg.1", "result": 1.427}, {"measurement": "logFC CD274", "setting": "transcript TC0900006559.hg.1", "result": 1.67}, {"measurement": "logFC ZNF483", "setting": "transcript TC0900008425.hg.1", "result": 1.1693}, {"measurement": "logFC OLFM1", "setting": "transcript TC0900009145.hg.1", "result": 2.218}, {"measurement": "logFC MLLT3", "setting": "transcript TC0900009673.hg.1", "result": 1.64}, {"measurement": "logFC NMRK1", "setting": "transcript TC0900010445.hg.1", "result": 1.539}, {"measurement": "logFC DIRAS2", "setting": "transcript TC0900010737.hg.1", "result": 1.619}, {"measurement": "logFC CTSV", "setting": "transcript TC0900010933.hg.1", "result": 2.165}, {"measurement": "logFC MEGF9", "setting": "transcript TC0900011379.hg.1", "result": 1.37}, {"measurement": "logFC PHYHIPL", "setting": "transcript TC1000007714.hg.1", "result": 2.12}, {"measurement": "logFC SFR1", "setting": "transcript TC1000008798.hg.1", "result": 1.8477}, {"measurement": "logFC VIM-AS1", "setting": "transcript TC1000009920.hg.1", "result": 1.211}, {"measurement": "logFC DNAJC12", "setting": "transcript TC1000010827.hg.1", "result": 2.378}, {"measurement": "logFC CPEB3", "setting": "transcript TC1000011420.hg.1", "result": 1.535}, {"measurement": "logFC MPP7", "setting": "transcript TC1000012536.hg.1", "result": 1.855}]}]}
